Reference: patent US8628781B2, “Prevention and treatment of cast nephropathy” (The UAB Research Foundation, priority 2010, dated 2014)
“Also recorded” adds a separate entry of the source. Bridges are numbered along the chain shown (N, C = ends). Where no end group is shown, it is not given here.

How the values were obtained:
Tamm-Horsfall protein [1] = target: T1, Tamm-Horsfall protein (Homo sapiens, UniProt P07911); assay: Competitive ELISA: peptide inhibition of Tamm-Horsfall protein binding to immunoglobulin light chains bound in microtiter wells; settings: for inhibition of binding between Tamm-Horsfall protein and human light chains (in words): six human light chains (λ2, 3 and 5 and κ3, 6, and 7), FIG. 7; for inhibition of binding of Tamm-Horsfall protein to immunoglobulin light chain (in words): uncyclized and cyclized peptide, FIG. 5
Description: Peptides known to react with the Tamm-Horsfall protein in the yeast two-hybrid assay were synthesized, cyclized, and used as inhibitors in a competitive ELISA experiment. The peptides were cyclized by adding cysteine residues to the amino and carboxyl-terminal portions of the peptides and generating an intramolecular disulfide bridge (FIG. 4). Cyclization facilitates formation of the loop structure in solution. Both the linear and cyclized peptides inhibited the binding of the Tamm-Horsfall protein to the immunoglobulin light chains bound in the wells of the microtiter plate, but the efficiency of inhibition was increased by cyclization of the peptide inhibitor.
(§1) Mutation of the CDR3 sequence to disrupt the loop structure by substituting amino acid residues with phenyalanine confirmed that the secondary structure was an important determinant of binding (FIG. 6). The inhibitory capability of cyclized experimental (CLSADSSGSYLYVC (SEQ ID NO:32)) and control (CLSAFSFGFYLYVC (SEQ ID NO:33)) peptides were then compared in a competitive ELISA assay.

Tamm-Horsfall protein [2] = target: T1, Tamm-Horsfall protein; assay: Competition studies of synthetic CDR3 peptide with light chains from myeloma patients for binding to Tamm-Horsfall protein; settings: six different immunoglobulin light chains from patients with myeloma and cast nephropathy
Description: The yeast two-hybrid system was employed to determine the site on the immunoglobulin light chain that interacted with the Tamm-Horsfall protein. Using 248- and 787-base pair fragments of the Tamm-Horsfall protein, which contained the previously described immunoglobulin light chain-binding domain, the interaction with unique immunoglobulin light chains that represented a variety of the known isotypes of κ and λ immunoglobulin light chains was examined. […] While this was considered an advance, this peptide was not considered to bind avidly enough to the Tamm-Horsfall protein to serve as an effective inhibitor in vivo.

Tamm-Horsfall protein [3] = assay: Yeast two-hybrid assay of CDR3 inserts ligated between Framework 2 and Framework 3 of LKPBLL53; assay type: binding, human; settings: FIG. 6, N=7
Description: Addition of the framework regions permits each CDR3, which was ligated into the construct using Sma1 and BamH1, to achieve proper folding into a loop structure. […] The CDR3 domain of ITPBLL2 differed from the CDR3 domain of ITPBLL1 (SEQ ID NO:28) by only two amino acids (underlined), which were sufficient to inhibit formation of a loop structure, and, thus, binding to the Tamm-Horsfall protein. […] N=6 experiments for each group.
Among those CDR3 domains that were predicted to form a loop, affinity for the Tamm-Horsfall protein was strong and correlated with that observed using the intact VL from the parent light chain.
as §1

[4] = tested on: rat model of cast nephropathy; assay: Rat model of cast nephropathy by administration of human kappa and lambda light chains; assay type: in vivo; settings: rats given human kappa and lambda light chains
Experimental: The competitor peptides, SEQ ID NO:1 and SEQ ID NO:2, have been used in a rat model of cast nephropathy, which employed administration of human kappa and lambda light chains. […] Rats were injected intraperitoneally with 40 mg of cyclized competitor peptide, SEQ ID NO:2 (pep), or vehicle alone (veh) just prior to intraperitoneal injection of 100 mg of human kappa or lambda light chain purified from patients who had multiple myeloma and kidney damage. On the following day, rats also received an additional injection of competitor peptides, SEQ ID NO:1 (20 mg) or vehicle. Rats were examined three days after the initial injection.

Sequence: CLSAFSFGFYLYVC (disulfide 1-14 (inferred)) [cyclized control peptide, reference compound]
- inhibition of binding between Tamm-Horsfall protein and human light chains (in words) (Tamm-Horsfall protein [1]): did not effectively inhibit binding

Sequence: MQGTHWPPLT [synthetic peptide identical to the CDR3 region of SSH23]
- competition with light chains for binding to Tamm-Horsfall protein (in words) (Tamm-Horsfall protein [2]): effectively competed

Sequence: LSAFSFGSYLYV [ITPBLL86 CDR3 mutated with two phenylalanines]
- interaction of wildtype and phenylalanine-mutated CDR3 sequence with Tamm-Horsfall protein (in words) (Tamm-Horsfall protein [3]): none of the mutated sequences interacted

Sequence: LSAFSFGFYLYV [ITPBLL86 CDR3 mutated with three phenylalanines]
- interaction of wildtype and phenylalanine-mutated CDR3 sequence with Tamm-Horsfall protein (in words) (Tamm-Horsfall protein [3]): none of the mutated sequences interacted

Sequence: QSYDNTLSGSYVF [peptide 1, QSYDNTLSGSYVF]
- effect on cast formation, acute renal failure and renal function (in words) [4]: prevented cast formation and acute renal failure and improved renal function
- inhibition of binding of Tamm-Horsfall protein to immunoglobulin light chain (in words) (Tamm-Horsfall protein [1]): inhibit binding

Sequence: LSADSSGSYLYV
- interaction of wildtype and phenylalanine-mutated CDR3 sequence with Tamm-Horsfall protein (in words) (Tamm-Horsfall protein [3]): interacted strongly

Sequence: CLSADSSGSYLYVC (disulfide 1-14 (inferred)) [cyclized experimental peptide]
- inhibition of binding between Tamm-Horsfall protein and human light chains (in words) (Tamm-Horsfall protein [1]): completely prevented the binding; also recorded: very efficient inhibitor

Sequence: LSAFSSGSYLYV [ITPBLL86 CDR3 mutated with one phenylalanine]
- interaction of wildtype and phenylalanine-mutated CDR3 sequence with Tamm-Horsfall protein (in words) (Tamm-Horsfall protein [3]): none of the mutated sequences interacted

Sequence: LSADSSGSYLYVF [peptide 2, LSADSSGSYLYVF]
- effect on cast formation, acute renal failure and renal function (in words) [4]: prevented cast formation and acute renal failure and improved renal function
- inhibition of binding of Tamm-Horsfall protein to immunoglobulin light chain (in words) (Tamm-Horsfall protein [1]): inhibit binding
